Results: ChEMBL document CHEMBL1136945, “Antimalarial activity of thiosemicarbazones and purine derived nitriles” (Bioorg Med Chem Lett, 2009)

Tests used:
Type in all cases: functional, organism-based
[1] = tested on: Plasmodium falciparum; test: (§1) Antimalarial activity as reduced parasitaemia after 72 hrs against chloroquine-resistant Plasmodium falciparum K1 infected human O+ erythrocytes by DNA stain without pepstatin; settings: K1, 72 h
[2] = tested on: Plasmodium falciparum; test: as §1; settings: K1, 72 h; remark: listed apart in the source
[3] = tested on: Plasmodium falciparum; test: Antimalarial activity as reduced parasitaemia after 72 hrs against chloroquine-sensitive Plasmodium falciparum 3D7 infected human O+ erythrocytes by DNA stain without pepstatin; settings: 3D7, 72 h
[4] = tested on: Plasmodium falciparum; test: Antimalarial activity as reduced parasitaemia after 72 hrs against chloroquine-sensitive Plasmodium falciparum 3D7 infected human O+ erythrocytes by DNA stain with pepstatin; settings: 3D7, 72 h

SMILES | EC50 [1] [µM] | EC50 [2] [µM] | EC50 [3] [µM] | EC50 [4] [µM]
N#Cc1nc(NCc2ccccc2)c2c(n1)N(C1CCCCO1)CN2 (stereo unspecified) | > 30 | > 30 | > 30 | > 30
CCCCCCNc1nc(C#N)nc2c1NCN2CC1CCCCC1 | > 30 | > 30 | > 30 | > 30
N#Cc1nc(NCc2cccc(-c3cc4ccccc4n3S(=O)(=O)c3ccccc3)c2)c2ncn(CCCO)c2n1 | > 30 | 30 | > 30 | 30
Cc1cccc(CNc2nc(C#N)nc3c2NCN3C2CCCC2)c1 | > 30 | > 30 | > 30 | > 30
Cc1ccc(CNc2nc(C#N)nc3c2NCN3CCCO)cc1 | > 30 | > 30 | > 30 | > 30
Cc1ccc(/C(=N/NC(N)=S)c2ccccc2)cc1 | > 30 | > 30 | > 30 | > 30
N#Cc1nc(NCc2ccc(-c3cccnc3)cc2)c2ncn(CCCO)c2n1 | > 30 | > 30 | > 30 | > 30
CCCCN1CNc2c(NCc3ccccc3)nc(C#N)nc21 | > 30 | > 30 | > 30 | > 30
CCCCN1CNc2c(NC(C)c3ccccc3)nc(C#N)nc21 (stereo unspecified) | 30 | 30 | > 30 | 30
N#Cc1nc(NCc2ccc(Br)cc2)c2c(n1)N(Cc1ccccc1)CN2 | 30 | 30 | > 30 | 30
N#Cc1nc(NCc2cccc(-c3ccc(Cl)c(Cl)c3)c2)c2ncn(CCCO)c2n1 | > 30 | > 30 | > 30 | > 30
N#Cc1nc(NCc2ccc(-c3ccsc3)cc2)c2ncn(CCCO)c2n1 | 30 | 30 | 30 | 30
CC(Nc1nc(C#N)nc2c1NCN2C1CCCC1)c1ccccc1 (stereo unspecified) | 30 | 30 | > 30 | > 30
N#Cc1nc(NCCc2ccccc2)c2c(n1)N(c1cccnc1)CN2 | > 30 | > 30 | > 30 | > 30
Cc1ccc(CNc2nc(C#N)nc3c2NCN3Cc2ccccc2)cc1 | > 30 | > 30 | > 30 | > 30
N#Cc1nc(NCc2ccc(Cl)c(Cl)c2)c2c(n1)N(CC(O)CO)CN2 (stereo unspecified) | > 30 | > 30 | > 30 | > 30
COC(CCN1CNc2c(NCc3ccc(Cl)c(Cl)c3)nc(C#N)nc21)OC | > 30 | > 30 | > 30 | 30
N#Cc1nc(NCc2ccc(Cl)c(Cl)c2)c2c(n1)N(Cc1cccc(C(F)(F)F)c1)CN2 | 30 | 24 | 27 | 30
CC(O)CN1CNc2c(NCc3ccc(Cl)c(Cl)c3)nc(C#N)nc21 (stereo unspecified) | > 30 | > 30 | > 30 | 30
Cc1ccc(/C(=N/NC(N)=S)c2cc(C(F)(F)F)cc(C(F)(F)F)c2)cc1 | 30 | 30 | 30 | 30
N#Cc1nc(NCc2ccc(-c3ccco3)cc2)c2ncn(CCCO)c2n1 | 13 | 12 | 18 | 12
CN(C)c1cccc(-c2cccc(CNc3nc(C#N)nc4c3ncn4CCCO)c2)c1 | > 30 | > 30 | > 30 | > 30
COc1ccc(CN2CNc3c(NCc4ccc(Cl)cc4)nc(C#N)nc32)cc1 | > 30 | > 30 | > 30 | 30

SMILES | EC50 [1] [µM] | EC50 [2] [µM] | EC50 [3] [µM] | EC50 [4] [µM]
N#Cc1nc(NCc2ccc(Br)cc2)c2c(n1)N(CCCc1ccccc1)CN2 | > 30 | > 30 | > 30 | > 30
C=Cc1cccc(-c2cccc(CNc3nc(C#N)nc4c3ncn4CCCO)c2)c1 | > 30 | > 30 | > 30 | > 30
CCCCN1CNc2c(NCc3ccc(C)cc3)nc(C#N)nc21 | > 30 | > 30 | > 30 | > 30
N#Cc1nc(NCc2cccc(Cc3cccc(Cl)c3)c2)c2ncn(CCCO)c2n1 | > 30 | > 30 | > 30 | > 30
CCCCN1CNc2c(NCc3cccc(C)c3)nc(C#N)nc21 | > 30 | > 30 | > 30 | > 30
CCC(C)CNc1nc(C#N)nc2c1NCN2C1CCCC1 (stereo unspecified) | > 30 | > 30 | > 30 | > 30
N#Cc1nc(NCc2cccc(-c3ccoc3)c2)c2ncn(CCCO)c2n1 | > 30 | > 30 | > 30 | > 30
N#Cc1nc(NCc2ccc(Cl)cc2)c2c(n1)N(CC1CCCCC1)CN2 | > 30 | > 30 | > 30 | > 30
N#Cc1nc(NCc2ccc(F)cc2)c2c(n1)N(CCCCO)CN2 | > 30 | > 30 | > 30 | > 30
NC(=S)N/N=C(/CCc1ccccc1)c1cccc(Cl)c1 | > 30 | > 30 | > 30 | –
N#Cc1nc(NCc2cccc(-c3ccsc3)c2)c2ncn(CCCO)c2n1 | > 30 | > 30 | > 30 | > 30
CCCCCCNc1nc(C#N)nc2c1NCN2C1CCCC1 | > 30 | > 30 | > 30 | > 30
N#Cc1nc(NCc2ccc(Cl)cc2)c2c(n1)N(CCCCO)CN2 | > 30 | > 30 | > 30 | > 30
COc1ccc(CNc2nc(C#N)nc3c2NCN3Cc2ccccc2)cc1 | > 30 | > 30 | > 30 | > 30
N#Cc1nc(NCc2ccc(Cl)cc2)c2c(n1)N(C1CCCC1)CN2 | > 30 | 30 | > 30 | 30
N#Cc1nc(NCc2cccc(-c3ccc4cc[nH]c4c3)c2)c2ncn(CCCO)c2n1 | > 30 | > 30 | > 30 | > 30
CC(Nc1nc(C#N)nc2c1NCN2Cc1ccccc1)c1ccccc1 (stereo unspecified) | > 30 | > 30 | > 30 | 30
N#Cc1nc(NCc2cccc(-c3ccc4ccccc4c3)c2)c2ncn(CCCO)c2n1 | > 30 | > 30 | > 30 | 30
N#Cc1nc(NCc2cccc(-c3cn(S(=O)(=O)c4ccccc4)c4ccccc34)c2)c2ncn(CCCO)c2n1 | > 30 | 30 | > 30 | 30
N#Cc1nc(NCc2ccc(-c3cccc(Cl)c3)cc2)c2ncn(CCCO)c2n1 | 20 | 18 | 20 | 14
N#Cc1nc(NCc2cccc(-c3cccs3)c2)c2ncn(CCCO)c2n1 | > 30 | > 30 | > 30 | > 30
NC(=S)N/N=C(/CCc1ccccc1)c1ccccc1 | > 30 | > 30 | > 30 | –
NC(=S)N/N=C(/c1ccccc1)c1cc(Cl)cc(Cl)c1 | > 30 | > 30 | > 30 | –
